From ChEMBL document CHEMBL3045745, “Antioxidant activity and inhibition effect on the growth of human colon carcinoma (HT-29) cells of esculetin from Cortex Fraxini” (Med Chem Res, 2011) come the findings set out here.

In data set [1] the test system is HT-29. Description: Growth inhibition of Homo sapiens (human) HT-29 cells assessed as inhibition of [3H]hypoxanthine incorporation at higher concentration incubated for 18 hr prior to [3H]hypoxanthine addition measured after 4 to 6 hr. The data set is classed as functional, cell-based.
Data set [2] relates to Radical scavenging activity. Description: Antioxidant activity assessed as DPPH radical scavenging at 0.05 mg/ml measured at 50 min by spectrophotometric analysis relative to control. The data set is classed as functional.
Data set [3] can be described thus: Antioxidant activity assessed as potassium ferricyanide reduction at 0.5 mg/ml after 20 min by spectrophotometric analysis. In kind it is functional.
In data set [4] the test system is Radical scavenging activity. Description: Antioxidant activity assessed as DPPH radical scavenging at 0.02 to 0.1 mg/ml measured within 10 min by spectrophotometric analysis. In kind it is functional. A general note: The DPPH test is a chemical assay of radical scavenging.
Data set [5] is described as follows: Antioxidant activity assessed as potassium ferricyanide reduction at 0.05 mg/ml after 20 min by spectrophotometric analysis. The data set is classed as functional.
Data set [6] in a line: Antioxidant activity assessed as reduction of Mo(6) in phophomolybdenum at 0.1 mg/ml after 150 min by spectrophotometric analysis. In kind it is functional.
Data set [7] relates to HT-29. Description: Induction of Homo sapiens (human) HT-29 cell proliferation assessed as [3H]hypoxanthine incorporation at 0.25 to 2 mg/ml incubated for 18 hr prior to [3H]hypoxanthine addition measured after 4 to 6 hr. In kind it is cell-based.
Data set [8] can be described thus: Antioxidant activity assessed as hydroxyl radical scavenging by resonance scattering method. The data set is classed as functional.
Data set [9] concerns Radical scavenging activity. Description: Antioxidant activity assessed as DPPH radical scavenging at 0.08 mg/ml measured at 50 min by spectrophotometric analysis relative to control. The data set is classed as functional.
Data set [10] deals with Radical scavenging activity. In words: Antioxidant activity assessed as DPPH radical scavenging at 0.02 mg/ml measured at 50 min by spectrophotometric analysis relative to control. In kind it is functional.
Data set [11] in a line: Antioxidant activity assessed as reduction of Mo(6) in phophomolybdenum at 0.5 mg/ml after 150 min by spectrophotometric analysis. The data set is classed as functional.
Data set [12] deals with Radical scavenging activity. In words: Antioxidant activity assessed as DPPH radical scavenging at 0.5 mg/ml measured at 50 min by spectrophotometric analysis relative to control. The data set is classed as functional.

Converted amounts (≈) assume the structure as drawn. The source made the active and inactive calls. No cut-off for these calls is given here.

For orientation: IC50 means the midpoint of a concentration-inhibition curve. Regarding `O=c1ccc2cc(O)c(O)cc2o1` [ESCULETIN], the “growth inhibition (GI)” value in [1] is “Dose-dependent effect”. Also, the Activity was 59.9% in data set [2], “Toxic” in [7], 79.7% in data set [9] and 28.1% in [10]. Moreover, the outcome in data set [3], in [4], in data set [5] and in data set [6] was Active. Also, the IC50 in [8] came out at 0.091 mg/L (≈ 0.511 µM).
On to `Cc1cc(C(C)(C)C)c(O)c(C(C)(C)C)c1` [BUTYLATED HYDROXYTOLUENE], for which the result in data set [11], in [3] and in [5] was Active. Further, the Activity in data set [12] came to 47.6%. Also, in [8], the IC50 was 2.883 mg/L (≈ 13.1 µM).
